Assay results from patent publication US9403813B2, “Azetidine amide derivatives as orexin receptor antagonists” (ACTELION PHARMACEUTICALS LTD, priority 2013, dated 2016).

What was measured:
human orexin-2 receptor = human orexin-2 receptor (Homo sapiens (Human), UniProt O43614); assay: Intracellular calcium measurements (FLIPR), antagonism of orexin-A response; assay type: cell-based; conditions: CHO cells expressing human orexin-2 receptor, 3 nM orexin-A, geometric mean if determined several times, read-out: IC50 OX2
Protocol: (§1) Antagonistic activities on both orexin receptors have been measured for each example compound using the following procedure:
(§2) In Vitro Assay: Intracellular Calcium Measurements:
(§3) Chinese hamster ovary (CHO) cells expressing the human orexin-1 receptor and the human orexin-2 receptor, respectively, are grown in culture medium (Ham F-12 with L-Glutamine) containing 300 μg/mL G418, 100 U/mL penicillin, 100 μg/mL streptomycin and 10% heat inactivated fetal calf serum (FCS). The cells are seeded at 20,000 cells/well into 384-well black clear bottom sterile plates (Greiner). The seeded plates are incubated overnight at 37° C. in 5% CO2. Human orexin-A as an agonist is prepared as 1 mM stock solution in MeOH:water (1:1), diluted in HBSS containing 0.1% bovine serum albumin (BSA), NaHCO3: 0.375 g/L and 20 mM HEPES for use in the assay at a final concentration of 3 nM.
(§4) Antagonists are prepared as 10 mM stock solution in DMSO, then diluted in 384-well plates using DMSO followed by a transfer of the dilutions into in HBSS containing 0.1% bovine serum albumin (BSA), NaHCO3: 0.375 g/L and 20 mM HEPES. On the day of the assay, 50 μL of staining buffer (HBSS containing 1% FCS, 20 mM HEPES, NaHCO3: 0.375 g/L, 5 mM probenecid (Sigma) and 3 μM of the fluorescent calcium indicator fluo-4 AM (1 mM stock solution in DMSO, containing 10% pluronic) is added to each well. The 384-well cell-plates are incubated for 50 min at 37° C. in 5% CO2 followed by equilibration at rt for 30 min before measurement.
(§5) Within the Fluorescent Imaging Plate Reader (FLIPR Tetra, Molecular Devices), antagonists are added to the plate in a volume of 10 μL/well, incubated for 120 min and finally 10 μL/well of agonist is added. Fluorescence is measured for each well at 1 second intervals, and the height of each fluorescence peak is compared to the height of the fluorescence peak induced by 3 nM orexin-A with vehicle in place of antagonist. The IC50 value (the concentration of compound needed to inhibit 50% of the agonistic response) is determined and may be normalized using the obtained IC50 value of an on-plate reference compound. Optimized conditions were achieved by adjustment of pipetting speed and cell splitting regime. The calculated IC50 values may fluctuate depending on the daily cellular assay performance. Fluctuations of this kind are known to those skilled in the art. In the case where IC50 values have been determined several times for the same compound, the geometric mean has been given.

human orexin-1 receptor = human orexin-1 receptor (Homo sapiens (Human), UniProt O43613); assay: as above; assay type: cell-based; conditions: CHO cells expressing human orexin-1 receptor, 3 nM orexin-A, geometric mean if determined several times, read-out: IC50 OX1
Protocol: as §1, §2, §3, §4, §5

human orexin-2 receptor, sequence (O43614 whole entry): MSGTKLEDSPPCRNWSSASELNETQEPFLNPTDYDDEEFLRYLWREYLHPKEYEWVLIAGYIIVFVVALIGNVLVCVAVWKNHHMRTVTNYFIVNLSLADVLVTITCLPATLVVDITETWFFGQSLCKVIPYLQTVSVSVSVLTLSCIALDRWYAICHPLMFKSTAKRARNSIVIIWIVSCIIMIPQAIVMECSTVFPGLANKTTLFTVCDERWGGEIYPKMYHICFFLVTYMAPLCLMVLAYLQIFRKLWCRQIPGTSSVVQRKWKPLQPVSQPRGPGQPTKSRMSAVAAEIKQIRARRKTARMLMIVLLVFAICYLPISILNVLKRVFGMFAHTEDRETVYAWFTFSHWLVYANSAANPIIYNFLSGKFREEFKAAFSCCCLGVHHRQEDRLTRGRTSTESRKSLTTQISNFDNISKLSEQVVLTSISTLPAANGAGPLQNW
human orexin-1 receptor, sequence (O43613 whole entry): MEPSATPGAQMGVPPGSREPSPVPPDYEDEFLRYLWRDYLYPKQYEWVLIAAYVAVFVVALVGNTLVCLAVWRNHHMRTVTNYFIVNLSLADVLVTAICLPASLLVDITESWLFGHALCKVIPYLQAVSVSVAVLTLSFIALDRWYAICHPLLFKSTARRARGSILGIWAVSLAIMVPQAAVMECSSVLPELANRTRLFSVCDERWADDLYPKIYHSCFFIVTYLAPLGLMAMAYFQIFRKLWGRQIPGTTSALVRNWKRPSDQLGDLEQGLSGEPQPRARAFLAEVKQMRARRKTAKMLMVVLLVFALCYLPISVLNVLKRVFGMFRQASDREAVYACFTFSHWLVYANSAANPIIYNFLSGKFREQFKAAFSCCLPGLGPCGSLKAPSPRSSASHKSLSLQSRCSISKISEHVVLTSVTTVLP

IC50 (human orexin-2 receptor) [nM] | IC50 (human orexin-1 receptor) [nM] | SMILES
19 | 1220 | Cc1ccc(-n2nccn2)c(C(=O)N2CC[C@H]2c2nc(-c3ccccc3C)no2)c1 [Example 1, (5-Methyl-2-[1,2,3]triazol-2-yl-phenyl)-[(S)-2-(3-o-tolyl-[1,2,4]oxadiazol-5-yl)-azetidin-1-yl]-methanone]
9 | 713 | Cc1ccc(-n2nccn2)c(C(=O)N2CC[C@H]2c2nc(-c3cccc(F)c3C)no2)c1 [Example 2, {(S)-2-[3-(3-Fluoro-2-methyl-phenyl)-[1,2,4]oxadiazol-5-yl]-azetidin-1-yl}-(5-methyl-2-[1,2,3]triazol-2-yl-phenyl)-methanone]
180 | 2110 | Cc1ccc(-c2noc([C@@H]3CCN3C(=O)c3cc(C)ccc3-n3nccn3)n2)cc1 [Example 3, (5-Methyl-2-[1,2,3]triazol-2-yl-phenyl)-[(S)-2-(3-p-tolyl-[1,2,4]oxadiazol-5-yl)-azetidin-1-yl]-methanone]
38 | 1300 | COc1ccccc1-c1noc([C@@H]2CCN2C(=O)c2cc(C)ccc2-n2nccn2)n1 [Example 4, {(S)-2-[3-(2-Methoxy-phenyl)-[1,2,4]oxadiazol-5-yl]-azetidin-1-yl}-(5-methyl-2-[1,2,3]triazol-2-yl-phenyl)-methanone]
25 | 1190 | COc1cccc(-c2noc([C@@H]3CCN3C(=O)c3cc(C)ccc3-n3nccn3)n2)c1 [Example 5, {(S)-2-[3-(3-Methoxy-phenyl)-[1,2,4]oxadiazol-5-yl]-azetidin-1-yl}-(5-methyl-2-[1,2,3]triazol-2-yl-phenyl)-methanone]
115 | 472 | CCCOc1ccccc1-c1noc([C@@H]2CCN2C(=O)c2cc(C)ccc2-n2nccn2)n1 [Example 6, (5-Methyl-2-[1,2,3]triazol-2-yl-phenyl)-{(S)-2-[3-(2-propoxy-phenyl)-[1,2,4]oxadiazol-5-yl]-azetidin-1-yl}-methanone]
10 | 120 | Cc1ccc(-n2nccn2)c(C(=O)N2CC[C@H]2c2nc(-c3cccc(Cl)c3C)no2)c1 [Example 7, {(S)-2-[3-(3-Chloro-2-methyl-phenyl)-[1,2,4]oxadiazol-5-yl]-azetidin-1-yl}-(5-methyl-2-[1,2,3]triazol-2-yl-phenyl)-methanone]
115 | 3430 | Cc1ccc(-n2nccn2)c(C(=O)N2CC[C@H]2c2nc(-c3c(C)cccc3F)no2)c1 [Example 8, {(S)-2-[3-(2-Fluoro-6-methyl-phenyl)-[1,2,4]oxadiazol-5-yl]-azetidin-1-yl}-(5-methyl-2-[1,2,3]triazol-2-yl-phenyl)-methanone]
10 | 134 | CCOc1c(F)cccc1-c1noc([C@@H]2CCN2C(=O)c2cc(C)ccc2-n2nccn2)n1 [Example 9, {(S)-2-[3-(2-Ethoxy-3-fluoro-phenyl)-[1,2,4]oxadiazol-5-yl]-azetidin-1-yl}-(5-methyl-2-[1,2,3]triazol-2-yl-phenyl)-methanone]
17 | 335 | Cc1ccc(-n2nccn2)c(C(=O)N2CC[C@H]2c2nc(-c3cc(C)ccc3C)no2)c1 [Example 10, {(S)-2-[3-(2,5-Dimethyl-phenyl)-[1,2,4]oxadiazol-5-yl]-azetidin-1-yl}-(5-methyl-2-[1,2,3]triazol-2-yl-phenyl)-methanone]
280 | 2320 | Cc1ccc(-n2nccn2)c(C(=O)N2CC[C@H]2c2nc(-c3cc(F)cc(F)c3)no2)c1 [Example 11, {(S)-2-[3-(3,5-Difluoro-phenyl)-[1,2,4]oxadiazol-5-yl]-azetidin-1-yl}-(5-methyl-2-[1,2,3]triazol-2-yl-phenyl)-methanone]
187 | 2490 | Cc1ccc(-n2nccn2)c(C(=O)N2CC[C@H]2c2nc(-c3ccc(F)c(F)c3)no2)c1 [Example 12, {(S)-2-[3-(3,4-Difluoro-phenyl)-[1,2,4]oxadiazol-5-yl]-azetidin-1-yl}-(5-methyl-2-[1,2,3]triazol-2-yl-phenyl)-methanone]
40 | 1160 | Cc1cccc(-c2noc([C@@H]3CCN3C(=O)c3cc(C)ccc3-n3nccn3)n2)c1 [Example 13, (5-Methyl-2-[1,2,3]triazol-2-yl-phenyl)-[(S)-2-(3-m-tolyl-[1,2,4]oxadiazol-5-yl)-azetidin-1-yl]-methanone]
40 | 1040 | Cc1ccc(-n2nccn2)c(C(=O)N2CC[C@H]2c2nc(-c3ccccc3Cl)no2)c1 [Example 14, {(S)-2-[3-(2-Chloro-phenyl)-[1,2,4]oxadiazol-5-yl]-azetidin-1-yl}-(5-methyl-2-[1,2,3]triazol-2-yl-phenyl)-methanone]
15 | 116 | Cc1ccc(-n2nccn2)c(C(=O)N2CC[C@H]2c2nc(-c3ccccc3OC(F)(F)F)no2)c1 [Example 15, (5-Methyl-2-[1,2,3]triazol-2-yl-phenyl)-{(S)-2-[3-(2-trifluoromethoxy-phenyl)-[1,2,4]oxadiazol-5-yl]-azetidin-1-yl}-methanone]
17 | 641 | COc1c(F)cccc1-c1noc([C@@H]2CCN2C(=O)c2cc(C)ccc2-n2nccn2)n1 [Example 16, {(S)-2-[3-(3-Fluoro-2-methoxy-phenyl)-[1,2,4]oxadiazol-5-yl]-azetidin-1-yl}-(5-methyl-2-[1,2,3]triazol-2-yl-phenyl)-methanone]
9 | 439 | COc1cc(C(=O)N2CC[C@H]2c2nc(-c3cccc(F)c3OC)no2)c(-n2nccn2)cc1C [Example 17, {(S)-2-[3-(3-Fluoro-2-methoxy-phenyl)-[1,2,4]oxadiazol-5-yl]-azetidin-1-yl}-(5-methoxy-4-methyl-2-[1,2,3]triazol-2-yl-phenyl)-methanone]
5 | 160 | Cc1cc(C(=O)N2CC[C@H]2c2nc(-c3ccccc3OC(F)(F)F)no2)c(-n2nccn2)cc1C [Example 18, (4,5-Dimethyl-2-[1,2,3]triazol-2-yl-phenyl)-{(S)-2-[3-(2-trifluoromethoxy-phenyl)-[1,2,4]oxadiazol-5-yl]-azetidin-1-yl}-methanone]
9 | 44 | COc1c(F)cccc1-c1noc([C@@H]2CCN2C(=O)c2ccc(C)cc2-n2nccn2)n1 [Example 19, {(S)-2-[3-(3-Fluoro-2-methoxy-phenyl)-[1,2,4]oxadiazol-5-yl]-azetidin-1-yl}-(4-methyl-2-[1,2,3]triazol-2-yl-phenyl)-methanone]
33 | 634 | COc1c(F)cccc1-c1noc([C@@H]2CCN2C(=O)c2ccc(C)cc2-n2nccn2)n1 [Example 20, {(S)-2-[3-(3-Fluoro-2-methoxy-phenyl)-[1,2,4]oxadiazol-5-yl]-azetidin-1-yl}-(4-methyl-2-[1,2,3]triazol-2-yl-phenyl)-methanone]
4 | 173 | Cc1cc(C(=O)N2CC[C@H]2c2nc(-c3cccc(F)c3C)no2)c(-n2nccn2)cc1C [Example 21, (4,5-Dimethyl-2-[1,2,3]triazol-2-yl-phenyl)-{(S)-2-[3-(3-fluoro-2-methyl-phenyl)-[1,2,4]oxadiazol-5-yl]-azetidin-1-yl}-methanone]
23 | 821 | Cc1ccc(C(=O)N2CC[C@H]2c2nc(-c3cccc(F)c3C)no2)c(-n2nccn2)c1 [Example 22, {(S)-2-[3-(3-Fluoro-2-methyl-phenyl)-[1,2,4]oxadiazol-5-yl]-azetidin-1-yl}-(4-methyl-2-[1,2,3]triazol-2-yl-phenyl)-methanone]
39 | 1420 | COc1cc(C(=O)N2CC[C@H]2c2nc(-c3ccccc3OC(F)(F)F)no2)c(-n2nccn2)cc1F [Example 23, (4-Fluoro-5-methoxy-2-[1,2,3]triazol-2-yl-phenyl)-{(S)-2-[3-(2-trifluoromethoxy-phenyl)-[1,2,4]oxadiazol-5-yl]-azetidin-1-yl}-methanone]
25 | 963 | COc1cc(C(=O)N2CC[C@H]2c2nc(-c3cccc(Cl)c3C)no2)c(-n2nccn2)cc1F [Example 24, {(S)-2-[3-(3-Chloro-2-methyl-phenyl)-[1,2,4]oxadiazol-5-yl]-azetidin-1-yl}-(4-fluoro-5-methoxy-2-[1,2,3]triazol-2-yl-phenyl)-methanone]
